Assay results as given in publication PMC3545969, “Mutagenicity and antimutagenicity of (−)-hinokinin a trypanosomicidal compound measured by Salmonella microsome and comet assays” (BMC Complementary and Alternative Medicine, 2012).
Like-named read-outs stand apart in the source and are kept apart here. Marks after values point to notes of the source that are not given here.

Legend:
[1] = tested on: Salmonella typhimurium TA98
[2] = tested on: Salmonella typhimurium TA102
[3] = tested on: Salmonella typhimurium TA102; assay: Ames test, antimutagenicity assay, TA102; type: cell-based
[4] = tested on: S. typhimurium strains TA98, TA100, TA102 and TA97a; conditions: HK 9.7 - 78.0 μg/plate, +S9 and −S9
[5] = tested on: Salmonella typhimurium TA100
[6] = tested on: Salmonella typhimurium TA98; remark: listed apart in the source
[7] = TA 102, + S9, HK 19.5 μg/plate + 2-AF 10.0 μg/plate
[8] = TA 102, + S9, HK 39.0 μg/plate + 2-AF 10.0 μg/plate
[9] = TA 102, + S9, HK 58.5 μg/plate + 2-AF 10.0 μg/plate
[10] = TA 102, + S9, HK 78.0 μg/plate + 2-AF 10.0 μg/plate
[11] = TA 102, - S9, HK 58.5 μg/plate + MMC 0.5 μg/plate
[12] = TA 102, - S9, HK 78.0 μg/plate + MMC 0.5 μg/plate
[13] = TA 100, + S9, HK 19.5 μg/plate + AFB1 0.5 μg/plate
[14] = TA 100, + S9, HK 39.0 μg/plate + AFB1 0.5 μg/plate
[15] = TA 100, + S9, HK 58.5 μg/plate + AFB1 0.5 μg/plate
[16] = TA 100, + S9, HK 78.0 μg/plate + AFB1 0.5 μg/plate
[17] = TA 100, + S9, HK […] + AFB1 0.5 μg/plate
[18] = TA 100, − S9, HK 19.5 μg/plate + SA 1.25 μg/plate
[19] = TA 100, − S9, HK 39.0 μg/plate + SA 1.25 μg/plate
[20] = TA 100, − S9, HK 58.5 μg/plate + SA 1.25 μg/plate
[21] = TA 100, − S9, HK 78.0 μg/plate + SA 1.25 μg/plate
[22] = TA 100, − S9, HK […] + SA 1.25 μg/plate
[23] = TA 98, − S9, HK 19.5 μg/plate + NOPD 10.0 μg/plate
[24] = TA 98, − S9, HK 39.0 μg/plate + NOPD 10.0 μg/plate
[25] = TA 98, − S9, HK 58.5 μg/plate + NOPD 10.0 μg/plate
[26] = TA 98, − S9, HK 78.0 μg/plate + NOPD 10.0 μg/plate
[27] = TA 98, − S9, HK […] + NOPD 10.0 μg/plate

O=C1OC[C@H](Cc2ccc3c(c2)OCO3)[C@H]1Cc1ccc2c(c1)OCO2 [HK, (−)-hinokinin]
MI (mutagenicity index) ([1]; TA 98, + S9, HK 19.5 μg/plate): 1.1 | Number of revertants(M ± SD)/ plate ([1]; TA 98, + S9, HK 19.5 μg/plate): 34 ± 3 revertants/plate | MI (mutagenicity index) ([1]; TA 98, + S9, HK 39.0 μg/plate): 1.0 | Number of revertants(M ± SD)/ plate ([1]; TA 98, + S9, HK 39.0 μg/plate): 33 ± 4 revertants/plate | MI (mutagenicity index) ([1]; TA 98, + S9, HK 58.5 μg/plate): 0.8 | Number of revertants(M ± SD)/ plate ([1]; TA 98, + S9, HK 58.5 μg/plate): 28 ± 1 revertants/plate | MI (mutagenicity index) ([1]; TA 98, + S9, HK 78.0 μg/plate): 1.0 | Number of revertants(M ± SD)/ plate ([1]; TA 98, + S9, HK 78.0 μg/plate): 31 ± 2 revertants/plate | MI (mutagenicity index) ([1]; TA 98, - S9, HK 19.5 μg/plate): 1.0 | Number of revertants(M ± SD)/ plate ([1]; TA 98, - S9, HK 19.5 μg/plate): 23 ± 3 revertants/plate | MI (mutagenicity index) ([1]; TA 98, - S9, HK 39.0 μg/plate): 1.1 | Number of revertants(M ± SD)/ plate ([1]; TA 98, - S9, HK 39.0 μg/plate): 25 ± 3 revertants/plate | MI (mutagenicity index) ([1]; TA 98, - S9, HK 58.5 μg/plate): 1.1 | Number of revertants(M ± SD)/ plate ([1]; TA 98, - S9, HK 58.5 μg/plate): 25 ± 2 revertants/plate | MI (mutagenicity index) ([1]; TA 98, - S9, HK 78.0 μg/plate): 1.1 | Number of revertants(M ± SD)/ plate ([1]; TA 98, - S9, HK 78.0 μg/plate): 24 ± 5 revertants/plate | Number of revertants(M ± SD)/ plate ([2]; TA 102, + S9, HK 19.5 μg/plate): 363 ± 3 revertants/plate | MI (mutagenicity index) ([2]; TA 102, + S9, HK 39.0 μg/plate): 0.9 | Number of revertants(M ± SD)/ plate ([2]; TA 102, + S9, HK 39.0 μg/plate): 354 ± 4 revertants/plate | MI (mutagenicity index) ([2]; TA 102, + S9, HK 58.5 μg/plate): 1.0 | Number of revertants(M ± SD)/ plate ([2]; TA 102, + S9, HK 58.5 μg/plate): 398 ± 9 revertants/plate | MI (mutagenicity index) ([2]; TA 102, + S9, HK 78.0 μg/plate): 1.0 | Number of revertants(M ± SD)/ plate ([2]; TA 102, + S9, HK 78.0 μg/plate): 402 ± 3 revertants/plate | Number of revertants(M ± SD)/ plate ([2]; TA 102, - S9, HK 19.5 μg/plate): 231 ± 8 revertants/plate | MI (mutagenicity index) ([2]; TA 102, - S9, HK 39.0 μg/plate): 0.9 | Number of revertants(M ± SD)/ plate ([2]; TA 102, - S9, HK 39.0 μg/plate): 213 ± 4 revertants/plate | MI (mutagenicity index) ([2]; TA 102, - S9, HK 58.5 μg/plate): 0.8 | Number of revertants(M ± SD)/ plate ([2]; TA 102, - S9, HK 58.5 μg/plate): 201 ± 6 revertants/plate | MI (mutagenicity index) ([2]; TA 102, - S9, HK 78.0 μg/plate): 0.8 | Number of revertants(M ± SD)/ plate ([2]; TA 102, - S9, HK 78.0 μg/plate): 186 ± 2 revertants/plate | Number of revertants(M ± SD)/ plate [3]: 852 + 21 revertants/plate | % inhibition [3, 7]: 42*** % | Number of revertants(M ± SD)/ plate [3, 7]: 855 + 22 revertants/plate | % inhibition [3, 8]: 46*** % | Number of revertants(M ± SD)/ plate [3, 8]: 820 + 19 revertants/plate | % inhibition [3, 9]: 52*** % | Number of revertants(M ± SD)/ plate [3, 9]: 754 + 9 revertants/plate | % inhibition [3, 10]: 52*** % | Number of revertants(M ± SD)/ plate [3, 10]: 757 + 29 revertants/plate | % inhibition ([3]; TA 102, + S9, HK […] + 2-AF 10.0 μg/plate): 42*** % | decrease in the mutagenicity of 2-AF ([3]; TA102, +S9, dose not given): 52% | Number of revertants(M ± SD)/ plate ([3]; TA 102, - S9, HK 19.5 μg/plate + MMC 0.5 μg/plate): 1201 + 23 revertants/plate | Number of revertants(M ± SD)/ plate ([3]; TA 102, - S9, HK 39.0 μg/plate + MMC 0.5 μg/plate): 1317 + 14 revertants/plate | % inhibition [3, 11]: 18* % | Number of revertants(M ± SD)/ plate [3, 11]: 1017 + 56 revertants/plate | % inhibition [3, 12]: 22* % | Number of revertants(M ± SD)/ plate [3, 12]: 979 + 51 revertants/plate | Number of revertants(M ± SD)/ plate ([3]; TA 102, - S9, HK […] + MMC 0.5 μg/plate): 1236 + 17 revertants/plate | effect on mutagenesis induced by MMC ([3]; TA102, absence of metabolic activation): did not reduce mutagenesis | mutagenic activity (number of revertant colonies relative to the negative control) [4]: did not induce any increase in the number of revertant colonies | % inhibition [5, 13]: 45*** % | Number of revertants(M ± SD)/ plate [5, 13]: 976 + 18 revertants/plate | % inhibition [5, 14]: 47*** % | Number of revertants(M ± SD)/ plate [5, 14]: 943 + 11 revertants/plate | % inhibition [5, 15]: 71*** % | Number of revertants(M ± SD)/ plate [5, 15]: 612 + 33 revertants/plate | % inhibition [5, 16]: 89*** % | Number of revertants(M ± SD)/ plate [5, 16]: 354 + 22 revertants/plate | % inhibition [5, 17]: 30** % | Number of revertants(M ± SD)/ plate [5, 17]: 1183 + 30 revertants/plate | effect on mutation induced by AFB1 ([5]; TA100, +S9): did inhibit mutation induced by the alkylating agent AFB1 | effect on mutagenesis induced by SA ([5]; TA100, absence of metabolic activation): did not reduce mutagenesis | % inhibition [5, 18]: 9* % | Number of revertants(M ± SD)/ plate [5, 18]: 1112 + 34 revertants/plate | % inhibition [5, 19]: 5* % | Number of revertants(M ± SD)/ plate [5, 19]: 1169 + 32 revertants/plate | % inhibition [5, 20]: 7* % | Number of revertants(M ± SD)/ plate [5, 20]: 1145 + 16 revertants/plate | % inhibition [5, 21]: 3* % | Number of revertants(M ± SD)/ plate [5, 21]: 1181 + 41 revertants/plate | % inhibition [5, 22]: 7* % | Number of revertants(M ± SD)/ plate [5, 22]: 1139 + 20 revertants/plate | % inhibition ([6]; TA 98, + S9, HK 19.5 μg/plate + B[a]P 1.0 μg/plate): 32** % | % inhibition ([6]; TA 98, + S9, HK 39.0 μg/plate + B[a]P 1.0 μg/plate): 36** % | % inhibition ([6]; TA 98, + S9, HK 58.5 μg/plate + B[a]P 1.0 μg/plate): 52*** % | % inhibition ([6]; TA 98, + S9, HK 78.0 μg/plate + B[a]P 1.0 μg/plate): 59*** % | % inhibition ([6]; TA 98, + S9, HK […] + B[a]P 1.0 μg/plate): 31** % | % inhibition [6, 23]: 21* % | Number of revertants(M ± SD)/ plate [6, 23]: 507 + 15 revertants/plate | % inhibition [6, 24]: 26** % | Number of revertants(M ± SD)/ plate [6, 24]: 477 + 5 revertants/plate | % inhibition [6, 25]: 19* % | Number of revertants(M ± SD)/ plate [6, 25]: 521 + 9 revertants/plate | % inhibition [6, 26]: 25** % | Number of revertants(M ± SD)/ plate [6, 26]: 480 + 16 revertants/plate | % inhibition [6, 27]: 18* % | Number of revertants(M ± SD)/ plate [6, 27]: 525 + 7 revertants/plate
